# Measurements reported in patent US5686424A, “2-oxoethyl derivatives as immunosuppressants” (Miles Inc., priority 1995, dated 1997).
# Where two headings read alike, the source gives them in different places.
# How the values were obtained:
# [1] = test system: human T-cells; test: Suppression of Human T-Cell Proliferation Assay (PHA-stimulated, [3H]-thymidine incorporation); assay type: cell-based; conditions: read-out: IC50
# Source text: 2) Human T Lymphocyte Inhibition
# Inhibition of mitogen-induced T-cell proliferation can be used to profile immunosuppressive activity of test compounds. In the description of the assay which follows, mitogen-induced T-cell activation was used to test the inhibitory potencies of select compounds of the present invention.
# In an assay similar to that described by Bradley in Mishell et al. (Eds.), 1980, Selected Methods in Cellular Immunology, pp 156-161, W. H. Freeman & Co., San Fransisco, Calif., T-cells were stimulated by incubation with phytohemagglutinin (PHA) which binds to cell surface molecules, including the T-cell receptor. This stimulation results in proliferation which can be measured by incorporation of [^3 H]-thymidine into cellular DNA.
# The immunosuppressive properties of the compounds of the present invention can be determined by adding various concentrations of the compounds to these cultures and measuring the effect on T-cell proliferation.
# Suppression of Human T-Cell Proliferation Assay
# Fresh LeukoPaks were obtained from the New York Blood Center, New York, N.Y. The cells, including erythrocytes and leukocytes, were diluted with Hank's Balanced Salt Solution (HBSS) (GIBCO, Grand Island, N.Y.) and layered over Lymphoprep (Nycomed Pharma AS, Oslo, Norway) in sterile 50 ml conical centrifuge tubes. Lymphocytes were isolated at the Hank's/Nycomed interface after centrifugation at 2000×g, 4° C. for 15 min. The lymphocytes were washed with Minimal Essential Medium (GIBCO) containing 2% fetal bovine serum (FBS) (Sigma Chemical Co., St. Louis, Mo.), 1% HEPES buffer (GIBCO) and 1% Penicillin-Stretomycin solution (GIBCO).
# T-cells were further purified essentially by sheep erythrocyte (SRBC) rosetting as described by Morimoto et al., 1983, J. Immunol. 130:157. The isolated lymphocytes were adjusted to 2×10^7 cells/ml and 5 ml aliquots of the cell suspension were incubated for 10 minutes at room temperature with 5 ml of a 5% SRBC (Cappel, Organon Technika Corp., West Chester, Pa.) suspension. The cells were gently pelleted by centrifugation at 300 rpm for 10 minutes, followed by a 1 hour incubation at room temperature to allow rosette formation. The cells were gently resuspended,layered over Lymphoprep and centrifuged for 30 minutes at 500×g. The pellet, containing rosetted T-cells and SRBC was treated with ice cold buffered ammonium chloride (GIBCO) to lyse the erythrocytes. T-cells were washed twice with HBSS.
# Purified T-cells were resuspended at 2×10^6 cells/ml in complete culture medium composed of RPMI-1640 (Whittaker Bioproducts, Walkerville, Md.) with 10% FBS (Sigma), 2 mM L-glutamine (GIBCO), 1% Penicillin-Streptomycin (GIBCO) and 15 mM HEPES (GIBCO). In 96-well plates (Becton Dickinson, Lincoln Park, N.J.), 0.1 ml aliquots of T-cell suspension were mixed with 0.05 ml of 40 μg/ml PHA-M (Sigma). The compounds of this invention were dissolved in dimethylsulfoxide at 10 mM and various dilutions in complete medium were added in duplicate wells (0.05 ml/well). The plates were incubated at 37° C. in a humidified atmosphere of 5% carbon dioxide and 95% air for 72 hours.
# Proliferation was assessed by measurement of [^3 H]-thymidine incorporation. During the last 6 hours of incubation, the cells were pulse labelled with 1 μCi/well of [^3 H]-thymidine (New England Nuclear, Boston, Mass.). The cells were harvested onto glass fiber paper using a plate harvester and the radioactivity incorporated into cellular DNA corresponding to individual wells was measured by standard liquid scintillation counting methods.
# [2] = biological target: FKBP (Homo sapiens, UniProt P62942); test: PPIase Inhibition Assay; assay type: biochemical
# Sequence of FKBP (P62942 whole entry): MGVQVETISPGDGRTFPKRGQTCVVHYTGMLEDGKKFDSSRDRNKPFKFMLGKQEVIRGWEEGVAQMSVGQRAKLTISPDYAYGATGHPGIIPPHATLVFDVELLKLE
# Method: 1) Inhibition of PPIase Activity
# This assay follows in principle the procedure described in Kofron et al., 1991, Biochemistry 30:6127.
# The three main reagents used are PPIase, a substrate for PPIase, and a selected inhibitor compound of the present invention. The basic principle behind this assay is the conversion of the cis isomer of the substrate to the trans form, which conversion is catalyzed by PPIase. Essentially, inhibition of this PPIase activity is measured for the selected compounds. A peptide chymotrypsin substrate containing a proline in the P2 position is only cleaved by chymotrypsin when the Phe-Pro bond is in the trans isomeric configuration. In the presence of excess chymotrypsin, all of the trans peptide isomers are cleaved within approximately five seconds, leaving only cis forms.
# The cis peptide will spontaneously convert to the trans isomer at a slow rate. The cis to trans conversion is catalyzed by isomerases at a much faster rate than this spontaneous conversion. Proteins with PPIase activity are examples of such isomerases. After isomerization, the peptide is cleaved by chymotrypsin releasing p-nitroaniline which can be monitored at 390 nm. The rate of release is then calculated using a first order rate plus offset equation utilizing the ENZFITTER program (Leatherbarrow, BIOSOFT, Cambridge, United Kingdom).
# In a plastic cuvette are added 950 ul of ice cold assay buffer (25 mM HEPES, pH 7.8, 100 mM NaCl), 10 uL of FKBP (2.5 uM in 10 mM Tris-Cl pH 7.5, 100 mM NaCl, 1 mM dithiothreitol), 25 ul of chymotrypsin (50 mg/ml in 1 mM HCl) and 10 ul of the test compound at various concentrations in dimethyl sulphoxide. The reaction is initiated by addition of 5 ul of substrate (Succinyl-Ala-Phe-Pro-Phe-para-nitroanilide, 5 mg/ml in 235 mM LiCl in trifluoroethanol).
# The absorbance at 390 nm versus time is monitored for 90 sec using a Beckman DU70 spectrophotometer. The absorbance versus time data files are transferred to an IBM XT computer and the rate constants determined using the commercial enzfitter program. For each set of data, the uncatalyzed rate of conversion is measured and the uninhibited enzymatic rate determined. The data are expressed as % Activity remaining and are calculated as follows:
# % Activity Remaining=(kobs -kuncat)/(kuninh
# where kobs is the rate in the presence of a selected test compound, kuncat is the rate in the absence of enzyme, and kuninh is the rate in the presence of enzyme
# Data was plotted as the velocity in the absence of the inhibitor (V-) divided by the velocity in the presence of inhibitor (V+) versus the inhibitor concentration. The IC50 can be determined following linear regression as the inhibitor concentration where
# [3] = concentration inhibiting [3H]-thymidine incorporation of PHA-stimulated T-cells by 50%, 72 hours, TABLE 2
# [4] = concentration of inhibitor required for 50% inhibition of enzyme activity, FKBP, substrate Succinyl-Ala-Phe-Pro-Phe-para-nitroanilide, TABLE I
Structure (SMILES),"IC50 [1, 3]","IC50 [2, 4]",IC50 [1],IC50 [2]
"CC[C@H](C)[C@H](NC(=O)[C@@H]1CCCCN1CC(=O)c1ccccc1)C(=O)NCc1ccccc1 [Example 17, L-Isoleucine, N-[1-(2-Phenyl-2-Oxoethyl)-L-Homoproline] Benzylamide]",> 50 µM,< 50 µM,,
O=C(CN1CCC[C@H]1C(=O)N[C@H](C(=O)NCc1ccccc1)c1ccccc1)c1ccccc1 [Example 18],6 µM,< 50 µM,,
"CC[C@H](C)[C@H](NC(=O)[C@@H]1CCCN1C(C)C(=O)c1ccccc1)C(=O)NCc1ccccc1 (stereo partly drawn) [Example 19, L-Isoleucine, N-[1-(1-Methyl-2-Phenyl-2-Oxoethyl)-L-Prolyl] Benzylamide]",18 µM,< 50 µM,,
"CC[C@H](C)[C@H](NC(=O)[C@@H]1CCCN1CC(=O)c1cccc(OC)c1)C(=O)NCc1ccccc1 [Example 20, L-Isoleucine, N-[1-(2-(3-Methoxyphenyl)-2-Oxoethyl)-L-Prolyl] Benzylamide]",< 11 µM,< 50 µM,,
"CC[C@H](C)[C@H](NC(=O)[C@@H]1CCCN1CC(=O)c1ccc(O)c(O)c1)C(=O)NCc1ccccc1 [Example 21, L-Isoleucine, N-[1-(2-(3,4-Dihydroxyphenyl)-2-Oxoethyl)-L-Prolyl] Benzylamide]",34 µM,< 50 µM,,
"CC[C@H](C)[C@@H](C(=O)NCc1ccccc1)N(C)C(=O)[C@@H]1CCCN1CC(=O)OCc1ccccc1 [Example 22, L-Isoleucine, N-Methyl-N-[1-(2-Benzyloxy-2-Oxoethyl)-L-Prolyl] Benzylamide]",42 µM,> 50 µM,,
CC[C@H](C)[C@H](NC(=O)[C@@H]1CCCCN1CC(=O)OCc1ccccc1)C(=O)NCc1ccccc1 [Example 23],62 µM,< 50 µM,,
"CC[C@H](C)[C@H](NC(=O)[C@@H]1CCCN1CC(=O)C(C)(C)C)C(=O)NCc1ccccc1 [Example 26, L-Isoleucine, N-[1-(2-tert-Butyl-2-Oxoethyl)-L-Proline] Benzylamlde]",58 µM,< 50 µM,,
"CC[C@H](C)[C@H](NC(=O)[C@@H]1CCCN1CC(=O)c1cc(OC)ccc1OC)C(=O)NCc1ccccc1 [Example 27, L-Isoleucine, N-[1-(2-(2,5-Dimethoxyphenyl)-2-Oxoethyl)-L-Prolyl] Benzylamide]",20 µM,12 µM,,
"CC[C@H](C)[C@H](NC(=O)[C@@H]1CCCN1CC(=O)c1cccc(OCc2ccccc2)c1)C(=O)NCc1ccccc1 [Example 31, L-Isoleucine, N-[1-(2-(3-Benzyloxyphenyl)-2-Oxoethyl)-L-Prolyl] Benzylamlde]",32 µM,< 5 µM,,
"CC[C@H](C)[C@H](NC(=O)[C@@H]1CCCN1CC(=O)c1ccc(C)cc1C)C(=O)NCc1ccccc1 [Example 32, L-Isoleucine, N-[1-(2-(2,4-Dimethylphenyl)-2-Oxoethyl)-L-Prolyl] Benzylamide]",41 µM,< 5 µM,,
"CC[C@H](C)[C@H](NC(=O)[C@@H]1CCCN1CC(=O)c1ccc(F)cc1)C(=O)NCc1ccccc1 [Example 33, L-Isoleucine, N-[1-(2-(4-Fluorophenyl)-2-Oxoethyl)-L-Prolyl] Benzylamide]",42 µM,5 µM,,
"CC[C@H](C)[C@H](NC(=O)[C@@H]1CCCN1CC(=O)c1ccc(Br)cc1)C(=O)NCc1ccccc1 [Example 34, L-Isoleucine, N-[1-(2-(4-Bromophenyl)-2-Oxoethyl)-L-Prolyl] Benzylamide]",40 µM,< 5 µM,,
"CC[C@H](C)[C@H](NC(=O)[C@@H]1CCCN1CC(=O)Nc1ccc(Cl)cc1Cl)C(=O)NCc1ccccc1 [Example 35, L-Isoleucine, N-[1-(2,4-Dichlorophenylcarbamoylmethyl)-L-Proline] Benzylamide]",43 µM,> 5 µM,,
"CC[C@H](C)[C@H](NC(=O)[C@@H]1CCCN1CC(=O)c1ccc(-c2ccccc2)cc1)C(=O)NC(C)(C)C [Example 52, L-Isoleucine, N-[1-(2-(Biphenyl-4-yl)-2-Oxoethyl)-L-Prolyl] tert-Butylamide]",,,> 50 µM,< 50 µM
"O=C(CN1CCC[C@H]1C(=O)N[C@@H](Cc1ccccc1)C(=O)NCc1ccccc1)c1ccc(-c2ccccc2)cc1 [Example 53, L-Phenylalanine, N-[1-(2-(Biphenyl-4-yl)-2-Oxoethyl)-L-Prolyl] Benzylamide]",,,16 µM,> 50 µM
"CC[C@H](C)[C@H](NC(=O)[C@@H]1CCCN1CC(=O)O)C(=O)NCc1ccccc1 [Example 71, L-Isoleucine, N-[1-(Carboxymethyl)-L-Prolyl] Benzylamide]",> 50 µM,> 5 µM,,
"CC[C@H](C)[C@H](NC(=O)[C@@H]1CCCN1CC(=O)N1CCC2(CC1)OCCO2)C(=O)NCc1ccccc1 [Example 73, L-Isoleucine, N-[1-(2-(1,4-Dioxa-8-aza-spiro[4.5]dec-8-yl)-2-Oxoethyl)-L-Prolyl] Benzylamide]",> 50 µM,< 5 µM,,
"CC[C@H](C)[C@H](NC(=O)[C@@H]1CCCN1CC(=O)N1CCC(Cc2ccccc2)CC1)C(=O)NCc1ccccc1 [Example 74, L-Isoleucine, N-[1-[2-(N-(4-Benzylpiperidyl))-2-Oxoethyl]-L-Prolyl] Benzylamide]",< 50 µM,< 5 µM,,
"CC[C@H](C)[C@H](NC(=O)[C@@H]1CCCN1CC(=O)N1CCCCC1C)C(=O)NCc1ccccc1 (stereo partly drawn) [Example 75, L-Isoleuclne, N-[1-[2-(2-Methylpiperidine)-2-Oxoethyl]-L-Prolyl] Benzylamide]",37 µM,< 5 µM,,
"CC[C@H](C)[C@H](NC(=O)[C@@H]1CCCN1CC(=O)NCCO)C(=O)NCc1ccccc1 [Example 76, L-Isoleucine, N-[1-(2-(2-Hydroxyethylamine)-2-Oxoethyl)-L-Prolyl] Benzylamide]",> 50 µM,> 5 µM,,
